Read-outs that look alike come from different tables or passages of the source.
Tests used:
CDK2/cyclin E = target: T1, CDK2/cyclin E (Homo sapiens, UniProt P24941); experiment: CDK/cyclin kinase assay, CDK2/cyclin E; type: biochemical; details: read-out: Kinase inhibition IC50 CDK2/E
T1 construct: His6; made in house; host or cells: Sf9 insect cells (baculovirus)
Description: (§3) His6-tagged recombinant human cyclin-dependant kinases CDK1/cyclin B1, CDK2/cyclin E, CDK2/cyclin A, and CDK4 were expressed in sf9 insect cells using a baculovirus expression system. Recombinant cyclin D1 was expressed in E. coli. […] Kinase assays were performed in 96-well plates using recombinant CDK/cyclins. […] Reactions were stopped on ice, followed by filtration through p81 or GF/C filterplates (for CDK4) (Whatman Polyfiltronics, Kent, UK). After washing 3 times with 75 mM aq orthophosphoric acid, plates were dried, scintillant added and incorporated radioactivity measured in a scintillation counter (TopCount, Packard Instruments, Pangbourne, Berks, UK). Compounds for kinase assays were made up as 10 mM stocks in DMSO and diluted into 10% DMSO in assay buffer.

CDK4/cyclin D1 = CDK4/cyclin D1 (Homo sapiens, UniProt P11802); experiment: CDK/cyclin kinase assay, CDK4/cyclin D1
Description: as §3

GSK-3β [1] = experiment: GSK-3β kinase assay (phosphorylation of CREB phosphopeptide); type: biochemical, rabbit; details: ratio of IC50 values
Description: (§1) GSK-3 was obtained from New England Biolabs (UK) Ltd., Hitchin, Herts. The recombinant enzyme was isolated from a strain of E. coli that carries a clone expressing GSK-3β derived from a rabbit skeletal muscle cDNA library [Wang, Q. M.; Fiol, C. […] The samples were transferred to 96-well p81 filter plates (Whatman Polyfiltronics, Kent, UK), and the plates were washed 4 times with 200 μL/well of 75 mM aq orthophosphoric acid.

GSK-3β [2] = target: GSK-3β (Oryctolagus cuniculus, UniProt G1T8E2); experiment: as above; type: biochemical, rabbit
Chain of GSK-3β (Oryctolagus cuniculus, UniProt G1T8E2) (G1T8E2 1-432): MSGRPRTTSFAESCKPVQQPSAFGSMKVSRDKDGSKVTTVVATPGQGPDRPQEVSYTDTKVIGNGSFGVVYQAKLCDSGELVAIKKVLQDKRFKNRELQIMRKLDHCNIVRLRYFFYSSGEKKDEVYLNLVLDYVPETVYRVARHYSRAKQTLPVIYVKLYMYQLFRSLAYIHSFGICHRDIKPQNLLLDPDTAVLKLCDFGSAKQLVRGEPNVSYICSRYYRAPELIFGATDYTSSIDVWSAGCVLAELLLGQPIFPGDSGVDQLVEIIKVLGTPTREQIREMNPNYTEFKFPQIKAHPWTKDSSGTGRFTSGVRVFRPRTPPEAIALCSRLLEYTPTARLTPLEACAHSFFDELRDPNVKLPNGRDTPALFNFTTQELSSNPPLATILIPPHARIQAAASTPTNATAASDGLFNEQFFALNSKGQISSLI
Description: as §1

CDK2/cyclin A = CDK2/cyclin A (Homo sapiens, UniProt P24941); experiment: CDK/cyclin kinase assay, CDK2/cyclin A
Description: as §3

[3] = test system: cellular glycogen synthase activity in HEK293 cells; experiment: Glycogen synthase (GS) assay in HEK293 cells; type: cell-based, human; details: for -Fold induction of GS activity: In HEK293 cells at [compound] = 5 μM, over control samples; for activity of glycogen synthase, fractional reaction velocity (ratio of activity at 0.1 and 10 mM glucose-6 phosphate): HEK293 cells, dose-dependent, FIG. 1
Description: (§2) Cells on 10 cm dishes (Human Embryonic Kidney (HEK) 293 cells, L6 rat myocytes, or 3T3 mouse adipocytes) were treated with different concentrations of GSK3-inhibitors or DMSO vehicle for 90 min. Incubation medium was removed and cells were washed with ice-cold phosphate-buffered saline (PBS) prior to lysis on ice in 50 mM HEPES, pH 7.5, 10 mM EDTA, 100 mM NaF, 5 mM DTT, protease inhibitor cocktail (Sigma). After a freeze/thaw cycle the samples are sonicated for 10 sec and centrifuged at 15,000 g for 10 min at 4° C. Lysate supernatants were snap-frozen on liquid nitrogen and stored at −80° C. Lysates were assayed for glycogen synthase activity in buffer (50 mM Tris-HCl, pH 7.8, 20 mM EDTA, 25 mM NaF, 5 mM DTT, 1% glycogen, 0.3 mM UDP-glucose and 0.06 μCi of [^14C]-UDP-glucose in the presence of 0.1 or 10 mM glucose-6-phosphate. The reaction was carried out for 30 min at 30° C. 70 μL of the reaction mixture (total volume 90 μL) were transferred to a GFC 96-well filter plate (bottom sealed with foil), containing 140 μL 96% ethanol. The GFC plate was incubated for 1 h on ice and than washed with 66% ethanol. To each well 100 μL scintillant liquid was added and the radioactivity of the samples was measured using a scintillation counter (Topcount, HP). Data are expressed as -fold increase in glycogen synthase activity ratios over those of control samples.

CDK1/cyclin B1 = CDK1/cyclin B1 (Homo sapiens, UniProt P06493); experiment: CDK/cyclin kinase assay, CDK1/cyclin B1
Chain of CDK1/cyclin B1 (P06493 whole entry): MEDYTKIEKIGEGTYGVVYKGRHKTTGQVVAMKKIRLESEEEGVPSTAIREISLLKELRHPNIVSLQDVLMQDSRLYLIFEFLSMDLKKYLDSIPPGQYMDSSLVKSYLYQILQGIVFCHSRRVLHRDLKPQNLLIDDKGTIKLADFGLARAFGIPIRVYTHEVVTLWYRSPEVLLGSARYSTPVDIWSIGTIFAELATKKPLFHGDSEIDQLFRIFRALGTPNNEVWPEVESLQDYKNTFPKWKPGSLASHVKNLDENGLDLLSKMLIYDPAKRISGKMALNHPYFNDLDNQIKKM
Chain of CDK1/cyclin B1 (P14635 whole entry partner): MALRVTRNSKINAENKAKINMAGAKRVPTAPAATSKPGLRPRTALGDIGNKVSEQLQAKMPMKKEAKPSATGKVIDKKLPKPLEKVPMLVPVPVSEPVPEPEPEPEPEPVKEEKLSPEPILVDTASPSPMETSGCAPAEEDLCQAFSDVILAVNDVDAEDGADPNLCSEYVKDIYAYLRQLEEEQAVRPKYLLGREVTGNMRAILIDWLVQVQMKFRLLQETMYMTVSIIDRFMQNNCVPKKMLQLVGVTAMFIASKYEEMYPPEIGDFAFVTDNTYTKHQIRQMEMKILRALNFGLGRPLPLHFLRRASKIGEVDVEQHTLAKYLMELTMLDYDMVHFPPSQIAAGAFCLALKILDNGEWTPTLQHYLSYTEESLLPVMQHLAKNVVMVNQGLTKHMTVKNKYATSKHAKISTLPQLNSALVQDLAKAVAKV
Description: as §3

[4] = test system: cellular glycogen synthase activity in L6 rat myocyte cells; experiment: Glycogen synthase (GS) assay in L6 rat myocytes; type: cell-based; details: for activation of GS: myocytes, at 1 μM; for activity of glycogen synthase, fractional reaction velocity (ratio of activity at 0.1 and 10 mM glucose-6 phosphate): rat myocyte cells, dose-dependent, FIG. 1
Description: Rat skeletal muscle myoblasts L6/G8.C5 were seeded at 2.4×10^5 cells per 10 cm dish in DMEM 10% foetal calf serum (FCS), containing penicillin/streptomycin. When 90% confluence was reached the medium was exchanged with α MEM, supplemented with 2% FCS and penicillin/streptomycin. Medium was refreshed every 48 hours and 4-7 days later the myocytes were formed.
as §2

[5] = test system: cellular glycogen synthase activity in 3T3 mouse adipocyte cells; experiment: Glycogen synthase (GS) assay in 3T3 mouse adipocytes; type: cell-based; details: for activation of GS: adipocytes, at 1 μM; for activity of glycogen synthase, fractional reaction velocity (ratio of activity at 0.1 and 10 mM glucose-6 phosphate): mouse adipocyte cells, dose-dependent, FIG. 1
Description: Mouse pre-adipocytes 3T3-F442A were seeded at 9×10^5 cells per 10 cm dish in DMEM 10% FCS, containing penicillin/streptomycin. When 90% confluent, the same medium was supplemented with […] insulin. After 3-5 days (when most cells were differentiated) insulin was removed and 4 days later the cells were ready to use.
as §2

male ZDF fa/fa rats = experiment: Oral glucose tolerance test (OGTT); type: in vivo, rat
Description: For the OGTT male ZDF fa/fa rats (Charles River, USA), 10-11 weeks old, were used. After 15 h fasting the animals were dosed intravenously with 5 mg/kg test compound in dosing vehicle, or with dosing vehicle (10% DMSO, 90% PEG-400) only at −270 and −30 min. At 0 min the rats were given 2 g/kg glucose by oral gavage. Plasma samples were taken before and every 15 min after the OGTT for determination of blood glucose.

[6] = read-out: IC50 value as measured by a GSK3β kinase assay
[7] = read-out: Kinase inhibition IC50 GSK3β
[8] = 5 mg/kg intravenously at -270 and -30 min, OGTT

Chain of CDK4/cyclin D1 (P11802 whole entry): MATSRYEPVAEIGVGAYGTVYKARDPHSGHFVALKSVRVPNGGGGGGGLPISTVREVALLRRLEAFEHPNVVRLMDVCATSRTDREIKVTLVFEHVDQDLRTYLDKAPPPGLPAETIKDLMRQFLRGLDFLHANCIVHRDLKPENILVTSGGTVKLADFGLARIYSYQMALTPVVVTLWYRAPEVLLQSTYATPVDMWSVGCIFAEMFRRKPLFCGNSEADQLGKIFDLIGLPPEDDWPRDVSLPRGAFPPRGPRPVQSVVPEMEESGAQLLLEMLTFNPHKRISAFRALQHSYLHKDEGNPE
Chain of CDK4/cyclin D1 (P24385 whole entry partner): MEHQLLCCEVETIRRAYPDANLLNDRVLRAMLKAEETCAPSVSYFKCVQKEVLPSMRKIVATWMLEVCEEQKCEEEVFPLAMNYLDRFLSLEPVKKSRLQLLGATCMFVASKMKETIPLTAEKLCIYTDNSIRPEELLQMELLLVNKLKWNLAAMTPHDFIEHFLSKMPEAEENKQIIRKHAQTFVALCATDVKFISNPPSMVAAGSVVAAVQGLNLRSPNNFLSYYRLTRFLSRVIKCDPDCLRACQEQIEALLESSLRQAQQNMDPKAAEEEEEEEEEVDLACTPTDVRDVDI

In the case of `Cc1c(-c2ccnc(Nc3ccc(N(C)C)c([N+](=O)[O-])c3)n2)c(C)n(C)c1C#N` [Compound 39, 4-[2-(4-Dimethylamino-3-nitro-phenylamino)-pyrimidin-4-yl]-1,3,5-trimethyl-1H-pyrrole-2-carbonitrile], the IC50 (CDK2/cyclin E) is reported as 160 nM, the IC50 (CDK4/cyclin D1) is reported as 1400 nM and the “Selectivity, IC50 (CDK2/E)/IC50 (GSK3β)” value (GSK-3β [1]) is reported as 8.4. The IC50 (GSK-3β [2]; [6]) was < 100 nM, the IC50 (GSK-3β [2]; [7]) was 19 nM and the IC50 (CDK2/cyclin A) was 220 nM. For the same compound, the “-Fold induction of GS activity” value [3] was 3.0 -fold and the IC50 (CDK1/cyclin B1) was 180 nM.
In the case of `Cc1[nH]c(C#N)c(C)c1-c1ccnc(Nc2ccc(C(F)(F)F)cc2)n1` [Compound 4, 3,5-Dimethyl-4-[2-(4-trifluoromethyl-phenylamino)-pyrimidin-4-yl]-1H-pyrrole-2-carbonitrile], the IC50 (CDK2/cyclin E) is reported as 180 nM, the IC50 (CDK4/cyclin D1) is reported as 2500 nM and the “Selectivity, IC50 (CDK2/E)/IC50 (GSK3β)” value (GSK-3β [1]) is reported as 0.1. For the same compound, the IC50 (GSK-3β [2]; [7]) was 2400 nM and the melting point was 195.6 to 198.9 °C.
In the case of `Cc1[nH]c(C#N)c(C)c1-c1ccnc(Nc2ccc(N(C)C)cc2)n1` [Compound 12, 4-[2-(4-Dimethylamino-phenylamino)-pyrimidin-4-yl]-3,5-dimethyl-1H-pyrrole-2-carbonitrile], the IC50 (CDK2/cyclin E) is reported as 540 nM, the IC50 (CDK4/cyclin D1) is reported as 370 nM and the “Selectivity, IC50 (CDK2/E)/IC50 (GSK3β)” value (GSK-3β [1]) is reported as 0.5. The IC50 (GSK-3β [2]; [7]) was 1200 nM, the melting point was 190.6 to 193.7 °C and the “-Fold induction of GS activity” value [3] was 1.2 -fold.
With `Cc1c(-c2ccnc(Nc3ccc(F)c([N+](=O)[O-])c3)n2)sc(=O)n1C` [Compound 28, 5-[2-(4-Fluoro-3-nitro-phenylamino)-pyrimidin-4-yl]-3,4-dimethyl-3H-thiazol-2-one] the IC50 (CDK2/cyclin E) was 170 nM, the IC50 (CDK4/cyclin D1) was 1800 nM and the “Selectivity, IC50 (CDK2/E)/IC50 (GSK3β)” value (GSK-3β [1]) was 85. For the same compound, the IC50 (GSK-3β [2]; [6]) was < 10 nM, the IC50 (GSK-3β [2]; [7]) was 2 nM and the IC50 (CDK2/cyclin A) was 80 nM. It also gave an IC50 (CDK1/cyclin B1) of 1030 nM.
In the case of `Cc1ccc(Nc2nccc(-c3sc(=O)n(C)c3C)n2)cc1[N+](=O)[O-]` [Compound 36, 3,4-Dimethyl-5-[2-(4-methyl-3-nitro-phenylamino)-pyrimidin-4-yl]-3H-thiazol-2-one], the IC50 (CDK2/cyclin E) is reported as 110 nM, the “Selectivity, IC50 (CDK2/E)/IC50 (GSK3β)” value (GSK-3β [1]) is reported as 4.5 and the IC50 (GSK-3β [2]; [6]) is reported as < 100 nM. The IC50 (GSK-3β [2]; [7]) was 30 nM, the melting point was 88.4 to 91.6 °C and the “-Fold induction of GS activity” value [3] was 3.0 -fold. It also gave an IC50 (CDK1/cyclin B1) of 200 nM.
For `Cc1[nH]c([N+](=O)[O-])c(C)c1-c1ccnc(Nc2ccc(N(C)C)c([N+](=O)[O-])c2)n1` [Compound 21, N^4-[4-(2,4-Dimethyl-5-nitro-1H-pyrrole-3-yl)-pyrimidin-2-yl]-N^1,N^1-dimethyl-2-nitro-benzene-1,4-diamine], the IC50 (CDK2/cyclin E) was 140 nM, the IC50 (CDK4/cyclin D1) was 1020 nM and the “activation of GS” value [4] was 2 -fold. The “activity of glycogen synthase, fractional reaction velocity (ratio of activity at 0.1 and 10 mM glucose-6 phosphate)” value [4] was “increased the activity of glycogen synthase”, the “activation of GS” value [5] was 4 -fold and the “activity of glycogen synthase, fractional reaction velocity (ratio of activity at 0.1 and 10 mM glucose-6 phosphate)” value [5] was “increased the activity of glycogen synthase”. For the same compound, the “Selectivity, IC50 (CDK2/E)/IC50 (GSK3β)” value (GSK-3β [1]) was 3.5, the IC50 (GSK-3β [2]; [6]) was < 100 nM and the IC50 (GSK-3β [2]; [7]) was 40 nM. For the same compound, the IC50 (CDK2/cyclin A) was 250 nM, the “activity of glycogen synthase, fractional reaction velocity (ratio of activity at 0.1 and 10 mM glucose-6 phosphate)” value [3] was “increased the activity of glycogen synthase” and the “-Fold induction of GS activity” value [3] was 3.3 -fold. For the same compound, the IC50 (CDK1/cyclin B1) was 300 nM.
For `Cc1[nH]c(C#N)c(C)c1-c1ccnc(Nc2ccc(N(C)C)c([N+](=O)[O-])c2)n1` [Compound 20, 4-[2-(4-Dimethylamino-3-nitro-phenylamino)-pyrimidin-4-yl]-3,5-dimethyl-1H-pyrrole-2-carbonitrile], the IC50 (CDK2/cyclin E) was 150 nM, the IC50 (CDK4/cyclin D1) was 160 nM and the “activation of GS” value [4] was 2 -fold. For the same compound, the “activity of glycogen synthase, fractional reaction velocity (ratio of activity at 0.1 and 10 mM glucose-6 phosphate)” value [4] was “increased the activity of glycogen synthase”, the “activation of GS” value [5] was 4 -fold and the “activity of glycogen synthase, fractional reaction velocity (ratio of activity at 0.1 and 10 mM glucose-6 phosphate)” value [5] was “increased the activity of glycogen synthase”. For the same compound, the “Selectivity, IC50 (CDK2/E)/IC50 (GSK3β)” value (GSK-3β [1]) was 30, the IC50 (GSK-3β [2]; [6]) was < 10 nM and the IC50 (GSK-3β [2]; [7]) was 5 nM. For the same compound, the glucose tolerance (male ZDF fa/fa rats; 5 mg/kg intravenously at -270 and -30 min, 2 g/kg oral glucose) was “improved the glucose tolerance in ZDF rats significantly”, the “decrease of absolute AUC (blood glucose)” value (male ZDF fa/fa rats; [8]) was 22% and the “decrease of reactive AUC (blood glucose)” value (male ZDF fa/fa rats; [8]) was 39%. For the same compound, the “insulin levels after treatment” value (male ZDF fa/fa rats; OGTT) was “decreased”, the IC50 (CDK2/cyclin A) was 100 nM and the “activity of glycogen synthase, fractional reaction velocity (ratio of activity at 0.1 and 10 mM glucose-6 phosphate)” value [3] was “increased the activity of glycogen synthase”. For the same compound, the “-Fold induction of GS activity” value [3] was 2.4 -fold and the IC50 (CDK1/cyclin B1) was 50 nM.

Reference: patent publication US20050282843A1, “Therapeutic applications of 2-substituted 4-heteroarylpyrimidines” (priority 2002, published 2005)
